Data set [1] concerns BEAS-2B. The experiment in a line: Anti-inflammatory activity in human BEAS2B cells assessed as inhibition of LPS-induced COX2 mRNA expression by real-time qPCR analysis. Format: functional. More on the design: scale not given: the % may be the effect or the level left. (In qPCR the cycle at which signal appears reflects the starting amount.)
Data set [2] relates to Rattus norvegicus. The data set is described as follows: Anti-inflammatory activity in Sprague-Dawley rat assessed as decrease in LPS- induced wet/dry ratio of lung tissue at 20 mg/kg/day, po for 7 days pre-treated before LPS challenge and measured 6 hrs after LPS challenge. Format: functional, organism-based.
The test system of data set [3] is RAW264.7. The data set is described as follows: Anti-inflammatory activity in mouse RAW264.7 cells assessed as inhibition of IL-6 production preincubated for 30 mins followed by 0.5 ug/ml LPS addition after 24 hrs by ELISA. Format: functional, cell-based. A general note: An ELISA detects its analyte on a solid surface through an enzyme-linked reagent.
In data set [4] the test system is BEAS-2B. The experiment in a line: Anti-inflammatory activity in human BEAS2B cells assessed as inhibition of LPS-induced IL6 mRNA expression by real-time qPCR analysis. The class given is functional. More on the design: scale not given: the % may be the effect or the level left.
The subject of data set [5] is Rattus norvegicus. The experiment in a line: Anti-inflammatory activity in Sprague-Dawley rat assessed as decrease in LPS-induced VCAM1 mRNA expression at 20 mg/kg/day, po for 7 days pre-treated before LPS challenge by real-time qPCR analysis. The class given is functional.
The subject of data set [6] is Rattus norvegicus. The data set is described as follows: Anti-inflammatory activity in Sprague-Dawley rat assessed as reduction in LPS-induced histopathological changes at 20 mg/kg/day, po for 7 days pre-treated before LPS challenge and measured 6 hrs after LPS challenge by light microscopic analysis. The class given is functional, organism-based.
In data set [7] the test system is RAW264.7. The data set is described as follows: Anti-inflammatory activity in mouse RAW264.7 cells assessed as inhibition of TNFalpha production at 10 uM preincubated for 30 mins followed by 0.5 ug/ml LPS addition after 24 hrs by ELISA. Format: functional.
For data set [8], the system named is Rattus norvegicus. The experiment in a line: Anti-inflammatory activity in Sprague-Dawley rat assessed as decrease in LPS-induced COX2 mRNA expression at 20 mg/kg/day, po for 7 days pre-treated before LPS challenge by real-time qPCR analysis. Format: functional.
Data set [9] relates to Rattus norvegicus. The data set is described as follows: Anti-inflammatory activity in Sprague-Dawley rat assessed as decrease in LPS- induced elevation of BALF protein concentration at 20 mg/kg/day, po for 7 days pre-treated before LPS challenge and measured 6 hrs after LPS challenge. Format: functional, organism-based.
Data set [10] concerns RAW264.7. The data set is described as follows: Anti-inflammatory activity in mouse RAW264.7 cells assessed as inhibition of TNFalpha production preincubated for 30 mins followed by 0.5 ug/ml LPS addition after 24 hrs by ELISA. The class given is functional, cell-based.
Data set [11] concerns RAW264.7. The data set is described as follows: Anti-inflammatory activity in mouse RAW264.7 cells assessed as inhibition of IL-6 production at 10 uM preincubated for 30 mins followed by 0.5 ug/ml LPS addition after 24 hrs by ELISA. The class given is functional.
Data set [12] concerns BEAS-2B. The data set is described as follows: Anti-inflammatory activity in human BEAS2B cells assessed as inhibition of LPS-induced IL1beta mRNA expression by real-time qPCR analysis. Format: functional. Set-up: scale not given: the % may be the effect or the level left.
Data set [13] relates to BEAS-2B. The experiment in a line: Anti-inflammatory activity in human BEAS2B cells assessed as inhibition of LPS-induced TNFalpha mRNA expression by real-time qPCR analysis. More on the design: scale not given: the % may be the effect or the level left. Format: functional.
For data set [14], the system named is Rattus norvegicus. The data set is described as follows: Anti-inflammatory activity in Sprague-Dawley rat assessed as decrease in LPS-induced IL1beta mRNA expression at 20 mg/kg/day, po for 7 days pre-treated before LPS challenge by real-time qPCR analysis. Format: functional.
The subject of data set [15] is Rattus norvegicus. The data set is described as follows: Anti-inflammatory activity in Sprague-Dawley rat assessed as decrease in LPS-induced IL6 mRNA expression at 20 mg/kg/day, po for 7 days pre-treated before LPS challenge by real-time qPCR analysis. Format: functional.
The test system of data set [16] is Rattus norvegicus. The data set is described as follows: Anti-inflammatory activity in Sprague-Dawley rat assessed as decrease in LPS-induced TNFalpha mRNA expression at 20 mg/kg/day, po for 7 days pre-treated before LPS challenge by real-time qPCR analysis. Format: functional.
Data set [17] can be described thus: Cytotoxicity against human HL-7702 cells assessed as cell viability at 10 uM after 24 hrs by MTT assay. The class given is cell-based. Particulars: l02, 24 h. (In general: Formazan colour is commonly taken as a measure of viable cells.)
Data set [18] relates to Rattus norvegicus. The experiment in a line: Anti-inflammatory activity in Sprague-Dawley rat assessed as decrease in LPS- induced number of neutrophils in BALF at 20 mg/kg/day, po for 7 days pre-treated before LPS challenge and measured 6 hrs after LPS challenge by Wright-Giemsa staining method. The class given is functional, organism-based.
For data set [19], the system named is Rattus norvegicus. The data set is described as follows: Anti-inflammatory activity in Sprague-Dawley rat assessed as decrease in LPS-induced ICAM1 mRNA expression at 20 mg/kg/day, po for 7 days pre-treated before LPS challenge by real-time qPCR analysis. The class given is functional.
The subject of data set [20] is Rattus norvegicus. The experiment in a line: Anti-inflammatory activity in Sprague-Dawley rat assessed as decrease in LPS- induced amount of TNFalpha in BALF at 20 mg/kg/day, po for 7 days pre-treated before LPS challenge and measured 6 hrs after LPS challenge by ELISA. The class given is functional, organism-based.

The values below come from ChEMBL document CHEMBL3751769, “Design, synthesis, and evaluation of semi-conservative mono-carbonyl analogs of curcumin as anti-inflammatory agents against lipopolysaccharide-induced acute lung injury” (Medchemcomm, 2015).

Active and inactive are the calls of the source. No cut-off for these calls is given here.

In general, inhibition in vivo refers to the relative decrease from the control value, in per cent.

With `COc1cc(/C=C2\CC/C(=C\c3c[nH]c4ccc(Br)cc34)C2=O)ccc1O`, the Activity is listed as 64.9% in [1]; 30% in data set [4]; 55.6% in data set [12]; 64.5% in [13]; “Non-toxic” in data set [17]. The result in [2], in data set [6], in [9], in data set [18] and in [20] was Active. Moreover, the inhibition result in data set [3] and in [10] was “Dose-dependent effect” throughout. The inhibition in vivo at 20 mg/kg/day in data set [5] is 52.9%; in data set [8], 77.3%; in data set [14], 39.2%; in data set [15], 92.9%; in data set [16], 38.4%; in data set [19] it was 74.1%. For the same compound, the “inhibition (INH)” value in data set [7] and in data set [11] was greater than 50% each time.
